Tests used:
[1] = test system: NCI-H358 cells (K-Ras G12C); assay: Potency assay: pERK in NCI-H358 cells; assay type: cell-based, human; settings: Homo sapiens, NCI-H358; H358 KRAS G12C; read-out: pERK EC50
How it was run: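 pERK decrease read by AlphaLISA SureFire p-ERK1/2 or In-Cell Western after 4 h compound exposure at 37 °C, 5% CO2.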

NCI-H358 (K-Ras G12C) = assay: CellTiter-Glo cell viability assay, NCI-H358; assay type: cell-based, human; settings: Homo sapiens, NCI-H358, 120 h, NCI-H358, 5-day treatment; class symbols; read-out: Additional H358 Cell Viability assay data (K-Ras G12C, IC50)
How it was run: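 Compounds dispensed directly onto seeded K-Ras mutant cells; plates read on day 5 after ~30 min equilibration to room temperature, by CellTiter-Glo luminescence. Signal normalized as (sample/mean DMSO)×100, then fitted to a four-parameter logistic curve.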

K-Ras G12C = K-Ras G12C (Homo sapiens (Human), UniProt P01116+P62937, G12C); assay: Ras-Raf (BRAF RBD) disruption / FRET / MOA assay, KRAS G12C; assay type: biochemical; settings: KRAS G12C; Ras-Raf disruption/FRET/MOA assay; read-out: IC50* KRAS G12C FRET data
K-Ras G12C, sequence (P01116-2 other isoform, or with tags, fused parts or gaps G12C): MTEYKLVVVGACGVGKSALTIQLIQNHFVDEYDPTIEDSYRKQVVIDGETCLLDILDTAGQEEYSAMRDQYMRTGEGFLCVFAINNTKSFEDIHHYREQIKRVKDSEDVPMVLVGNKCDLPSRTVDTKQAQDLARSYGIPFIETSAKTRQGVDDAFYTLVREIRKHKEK
K-Ras G12C, sequence (P62937 whole entry): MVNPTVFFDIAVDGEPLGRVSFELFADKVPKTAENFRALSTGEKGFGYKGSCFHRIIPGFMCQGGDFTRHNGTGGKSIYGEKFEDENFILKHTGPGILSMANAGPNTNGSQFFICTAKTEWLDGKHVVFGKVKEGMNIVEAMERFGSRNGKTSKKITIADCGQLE
How it was run: (§1)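 A 10-point, 3-fold dilution series topping at 30 μM final was incubated 3 h at 25° C with the Ras/cyclophilin A/BRAF RBD mixture.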

K-Ras G13C = K-Ras G13C (Homo sapiens (Human), UniProt P01116+P62937, G13C); assay: Ras-Raf (BRAF RBD) disruption / FRET / MOA assay, KRAS G13C; assay type: biochemical; settings: KRAS G13C; Ras-Raf disruption/FRET/MOA assay; read-out: IC50* KRAS G13C FRET data
K-Ras G13C, sequence (P01116-2 other isoform, or with tags, fused parts or gaps G13C): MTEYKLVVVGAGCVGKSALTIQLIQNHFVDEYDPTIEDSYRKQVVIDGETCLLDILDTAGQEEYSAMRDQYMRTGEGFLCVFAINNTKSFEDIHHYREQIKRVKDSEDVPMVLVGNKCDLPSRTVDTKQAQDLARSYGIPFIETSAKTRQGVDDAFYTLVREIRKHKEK
K-Ras G13C, sequence (P62937 whole entry): as the sequence (P62937 whole entry) above
How it was run: as §1

KRAS G12S = KRAS G12S (Homo sapiens (Human), UniProt P01116+P62937, G12S); assay: Ras-Raf (BRAF RBD) disruption / FRET / MOA assay, KRAS G12S; assay type: biochemical; settings: Ras-Raf disruption/FRET/MOA assay; class symbols; read-out: KRAS G12S FRET data IC50
KRAS G12S, sequence (P01116-2 other isoform, or with tags, fused parts or gaps G12S): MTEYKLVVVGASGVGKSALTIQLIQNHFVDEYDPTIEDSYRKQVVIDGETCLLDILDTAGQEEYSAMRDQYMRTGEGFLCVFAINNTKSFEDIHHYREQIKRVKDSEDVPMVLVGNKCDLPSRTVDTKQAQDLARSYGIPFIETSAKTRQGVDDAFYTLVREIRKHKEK
KRAS G12S, sequence (P62937 whole entry): as the sequence (P62937 whole entry) above
How it was run: as §1

KRAS G12D = KRAS G12D (Homo sapiens (Human), UniProt P01116+P62937, G12D); assay: Ras-Raf (BRAF RBD) disruption / FRET / MOA assay, KRAS G12D; assay type: biochemical; settings: Ras-Raf disruption/FRET/MOA assay; class symbols; read-out: KRAS G12D FRET data IC50
KRAS G12D, sequence (P01116-2 other isoform, or with tags, fused parts or gaps G12D): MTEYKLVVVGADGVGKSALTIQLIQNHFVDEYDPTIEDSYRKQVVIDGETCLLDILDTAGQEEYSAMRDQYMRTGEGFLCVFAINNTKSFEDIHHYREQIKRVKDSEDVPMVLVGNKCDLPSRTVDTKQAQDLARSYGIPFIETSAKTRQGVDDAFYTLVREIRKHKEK
KRAS G12D, sequence (P62937 whole entry): as the sequence (P62937 whole entry) above
How it was run: as §1

KRAS G12V = KRAS G12V (Homo sapiens (Human), UniProt P01116+P62937, G12V); assay: Ras-Raf (BRAF RBD) disruption / FRET / MOA assay, KRAS G12V; assay type: biochemical; settings: read-out: IC50* KRAS G12V FRET data
KRAS G12V, sequence (P01116-2 other isoform, or with tags, fused parts or gaps G12V): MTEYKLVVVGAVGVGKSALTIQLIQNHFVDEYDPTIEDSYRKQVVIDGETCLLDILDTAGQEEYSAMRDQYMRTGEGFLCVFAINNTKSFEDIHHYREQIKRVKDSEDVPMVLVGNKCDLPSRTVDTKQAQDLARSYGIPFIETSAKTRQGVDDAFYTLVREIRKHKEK
KRAS G12V, sequence (P62937 whole entry): as the sequence (P62937 whole entry) above
How it was run: as §1

KRAS WT = KRAS WT (Homo sapiens (Human), UniProt P01116+P62937); assay: Ras-Raf (BRAF RBD) disruption / FRET / MOA assay, KRAS WT; assay type: biochemical; settings: read-out: IC50* KRAS WT FRET data
KRAS WT, sequence (P01116-2 other isoform, or with tags, fused parts or gaps): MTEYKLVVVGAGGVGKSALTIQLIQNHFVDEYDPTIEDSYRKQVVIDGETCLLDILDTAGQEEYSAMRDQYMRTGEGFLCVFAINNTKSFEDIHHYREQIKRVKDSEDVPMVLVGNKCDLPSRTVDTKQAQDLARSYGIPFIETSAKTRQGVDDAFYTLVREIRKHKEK
KRAS WT, sequence (P62937 whole entry): as the sequence (P62937 whole entry) above
How it was run: as §1

KRAS G13D = KRAS G13D (Homo sapiens (Human), UniProt P01116+P62937, G13D); assay: Ras-Raf (BRAF RBD) disruption / FRET / MOA assay, KRAS G13D; assay type: biochemical; settings: read-out: IC50* KRAS G13D FRET data
KRAS G13D, sequence (P01116-2 other isoform, or with tags, fused parts or gaps G13D): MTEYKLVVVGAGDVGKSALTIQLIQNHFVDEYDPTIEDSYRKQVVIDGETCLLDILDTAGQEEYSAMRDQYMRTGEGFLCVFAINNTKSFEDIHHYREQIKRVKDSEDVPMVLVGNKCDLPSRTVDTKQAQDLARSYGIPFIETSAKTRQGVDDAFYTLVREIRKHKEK
KRAS G13D, sequence (P62937 whole entry): as the sequence (P62937 whole entry) above
How it was run: as §1

NRAS G12C = NRAS G12C (Homo sapiens (Human), UniProt P01111+P62937, G12C); assay: Ras-Raf (BRAF RBD) disruption / FRET / MOA assay, NRAS G12C; assay type: biochemical; settings: read-out: IC50* NRAS G12C FRET data
NRAS G12C, sequence (P01111 whole entry G12C): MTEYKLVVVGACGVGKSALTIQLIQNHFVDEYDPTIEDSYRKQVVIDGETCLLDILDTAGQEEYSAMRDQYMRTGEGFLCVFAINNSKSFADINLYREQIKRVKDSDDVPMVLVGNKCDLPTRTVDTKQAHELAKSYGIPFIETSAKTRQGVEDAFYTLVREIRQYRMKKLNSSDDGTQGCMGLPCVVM
NRAS G12C, sequence (P62937 whole entry): as the sequence (P62937 whole entry) above
How it was run: as §1

SMILES | EC50 [1] [µM] | IC50 (NCI-H358 (K-Ras G12C)) [nM] | IC50 (K-Ras G12C) [nM] | IC50 (K-Ras G13C) [nM] | IC50 (KRAS G12S) [nM] | IC50 (KRAS G12D) [µM] | IC50 (KRAS G12V) [nM] | IC50 (KRAS WT) [nM] | IC50 (KRAS G13D) [µM] | IC50 (NRAS G12C) [nM]
CCn1c(-c2cccnc2[C@H](C)OC)c2c3cc(ccc31)-c1csc(n1)C[C@H](NC(=O)[C@H](C(C)C)N1CCC3(CCN(C(=O)C#CC(C)(C)N(C)C)CC3)C1=O)C(=O)N1CCC[C@H](N1)C(=O)OCC(C)(C)C2 (atropisomer, axis not shown) [Example A322] | < 5 | < 10 | < 10 | 100 to 1000 | > 10000 | > 10 | > 10000 | > 10000 | > 10 | 10 to 100
CCn1c(-c2cccnc2[C@H](C)OC)c2c3cc(ccc31)-c1csc(n1)C[C@H](NC(=O)[C@H](C(C)C)N1CCC3(CN(C(=O)C#CC(C)(C)N(C)C)C3)C1=O)C(=O)N1CCC[C@H](N1)C(=O)OCC(C)(C)C2 (atropisomer, axis not shown) [Example A323] | < 5 | < 10 | < 10 | 100 to 1000 | > 10000 | > 10 | > 10000 | > 10000 | > 10 | < 10
CCn1c(-c2cccnc2[C@H](C)OC)c2c3cc(ccc31)-c1cccc(c1)C[C@H](NC(=O)[C@H](C(C)C)N1CCC3(CN(C(=O)C#CC(C)(C)N(C)C)C3)C1=O)C(=O)N1CCC[C@H](N1)C(=O)OCC(C)(C)C2 (atropisomer, axis not shown) [Example A324] | < 5 | < 10 | < 10 | 100 to 1000 | 1000 to 10000 | > 10 | 1000 to 10000 | 1000 to 10000 | > 10 | < 10
CCn1c(-c2cccnc2[C@H](C)OC)c2c3cc(ccc31)-c1cccc(c1)C[C@H](NC(=O)[C@H](C(C)C)N(C)C(=O)[C@H]1CCN(C(=O)C#CC(C)(C)N3CCCC3)C1)C(=O)N1CCC[C@H](N1)C(=O)OCC(C)(C)C2 (atropisomer, axis not shown) [Example A326] | < 5 | < 10 | < 10 | 1000 to 10000 | 1000 to 10000 | 1 to 10 | 1000 to 10000 | 1000 to 10000 | 1 to 10 | < 10
C=CC(=O)N1CC[C@H](C(=O)N(C)[C@H](C(=O)N[C@H]2Cc3cccc(c3F)-c3ccc4c(c3)c(c(-c3cccnc3[C@H](C)OC)n4CC)CC(C)(C)COC(=O)[C@@H]3CCCN(N3)C2=O)C(C)C)C1 (atropisomer, axis not shown) [Example A327] | < 5 | 10 to 100 | 100 to 1000 | 1000 to 10000 | 1000 to 10000 | > 10 | > 10000 | > 10000 | > 10 | 100 to 1000
C=CC(=O)N1CCN(C(=O)N(C)[C@H](C(=O)N[C@H]2Cc3nc(cs3)-c3ccc4c(c3)c(c(-c3cccnc3[C@H](C)OC)n4CC)CC(C)(C)COC(=O)[C@@H]3CCCN(N3)C2=O)C(C)C)C2(CC2)C1 (atropisomer, axis not shown) [Example A395] | < 5 | < 10 | 100 to 1000 | 100 to 1000 | 100 to 1000 | 1 to 10 | 100 to 1000 | 100 to 1000 | 0.1 to 1 | 100 to 1000
C=CC(=O)N1C[C@@H](F)[C@](F)(C(=O)N(C)[C@H](C(=O)N[C@H]2Cc3cccc(c3)-c3ccc4c(c3)c(c(-c3cccnc3[C@H](C)OC)n4CC)CC(C)(C)COC(=O)[C@@H]3CCCN(N3)C2=O)C(C)C)C1 (atropisomer, axis not shown) [Example A396] | < 5 | < 10 | 10 to 100 | 10 to 100 | 1000 to 10000 | 1 to 10 | 1000 to 10000 | 1000 to 10000 | 1 to 10 | 10 to 100
C=CC(=O)N1C[C@H](F)[C@](F)(C(=O)N(C)[C@H](C(=O)N[C@H]2Cc3cccc(c3)-c3ccc4c(c3)c(c(-c3cccnc3[C@H](C)OC)n4CC)CC(C)(C)COC(=O)[C@@H]3CCCN(N3)C2=O)C(C)C)C1 (atropisomer, axis not shown) [Example A397] | < 5 | < 10 | 10 to 100 | 10 to 100 | 100 to 1000 | 1 to 10 | 100 to 1000 | 100 to 1000 | 0.1 to 1 | 10 to 100
C=CC(=O)N1CC[C@H](C(=O)N(CC)[C@H](C(=O)N[C@H]2Cc3cccc(c3)-c3ccc4c(c3)c(c(-c3cccnc3[C@H](C)OC)n4CC)CC(C)(C)COC(=O)[C@@H]3CCCN(N3)C2=O)C(C)C)C1 (atropisomer, axis not shown) [Example A399] | < 5 | 10 to 100 | 100 to 1000 | 1000 to 10000 | 1000 to 10000 | > 10 | 1000 to 10000 | 1000 to 10000 | 1 to 10 | 100 to 1000
C=CC(=O)N1C[C@H](C(=O)N(C)[C@H](C(=O)N[C@H]2Cc3cccc(c3)-c3ccc4c(c3)c(c(-c3cccnc3[C@H](C)OC)n4CC)CC(C)(C)COC(=O)[C@@H]3CCCN(N3)C2=O)C(C)C)[C@H](C(F)(F)F)C1 (atropisomer, axis not shown) [Example A400] | < 5 | 10 to 100 | 10 to 100 | 1000 to 10000 | > 10000 | > 10 | > 10000 | > 10000 | > 10 | 10 to 100
CC#CC(=O)N1C[C@H](C)[C@H](C(=O)N(C)[C@H](C(=O)N[C@H]2Cc3cccc(c3)-c3ccc4c(c3)c(c(-c3cccnc3[C@H](C)OC)n4CC)CC(C)(C)COC(=O)[C@@H]3CCCN(N3)C2=O)C2CCCC2)C1 (atropisomer, axis not shown) [Example A402] | < 5 | 10 to 100 | 100 to 1000 | 1000 to 10000 | 1000 to 10000 | > 10 | 1000 to 10000 | 1000 to 10000 | > 10 | 100 to 1000
C=CC(=O)N1C[C@@H](C)N(C(=O)N(C)[C@H](C(=O)N[C@H]2Cc3nc(cs3)-c3ccc4c(c3)c(c(-c3cccnc3[C@H](C)OC)n4CC)CC(C)(C)COC(=O)[C@@H]3CCCN(N3)C2=O)C(C)C)C[C@H]1C (atropisomer, axis not shown) [Example A406] | < 5 | 10 to 100 | 100 to 1000 | 100 to 1000 | 100 to 1000 | 1 to 10 | 100 to 1000 | 100 to 1000 | 0.1 to 1 | 100 to 1000

— patent US11566007B2, “Ras inhibitors” (Revolution Medicines, Inc., priority 2019, dated 2023)
